These results are taken from the Kinase Knowledgebase extract (Sharma et al. 2016).

What is called IC50 is the concentration that inhibits the measured activity by half. Read a high IC50 as a need for much substance.

Several values for one entry are separate records, joined by “and”; a condition that tells them apart may be missing. Equal entries are not always repeated.

In the test the target is EGFR (UniProt P00533). Nature of the test: Inhibition of EGFR Kinase Activity.
Sequence of EGFR (P00533 whole entry, looked up): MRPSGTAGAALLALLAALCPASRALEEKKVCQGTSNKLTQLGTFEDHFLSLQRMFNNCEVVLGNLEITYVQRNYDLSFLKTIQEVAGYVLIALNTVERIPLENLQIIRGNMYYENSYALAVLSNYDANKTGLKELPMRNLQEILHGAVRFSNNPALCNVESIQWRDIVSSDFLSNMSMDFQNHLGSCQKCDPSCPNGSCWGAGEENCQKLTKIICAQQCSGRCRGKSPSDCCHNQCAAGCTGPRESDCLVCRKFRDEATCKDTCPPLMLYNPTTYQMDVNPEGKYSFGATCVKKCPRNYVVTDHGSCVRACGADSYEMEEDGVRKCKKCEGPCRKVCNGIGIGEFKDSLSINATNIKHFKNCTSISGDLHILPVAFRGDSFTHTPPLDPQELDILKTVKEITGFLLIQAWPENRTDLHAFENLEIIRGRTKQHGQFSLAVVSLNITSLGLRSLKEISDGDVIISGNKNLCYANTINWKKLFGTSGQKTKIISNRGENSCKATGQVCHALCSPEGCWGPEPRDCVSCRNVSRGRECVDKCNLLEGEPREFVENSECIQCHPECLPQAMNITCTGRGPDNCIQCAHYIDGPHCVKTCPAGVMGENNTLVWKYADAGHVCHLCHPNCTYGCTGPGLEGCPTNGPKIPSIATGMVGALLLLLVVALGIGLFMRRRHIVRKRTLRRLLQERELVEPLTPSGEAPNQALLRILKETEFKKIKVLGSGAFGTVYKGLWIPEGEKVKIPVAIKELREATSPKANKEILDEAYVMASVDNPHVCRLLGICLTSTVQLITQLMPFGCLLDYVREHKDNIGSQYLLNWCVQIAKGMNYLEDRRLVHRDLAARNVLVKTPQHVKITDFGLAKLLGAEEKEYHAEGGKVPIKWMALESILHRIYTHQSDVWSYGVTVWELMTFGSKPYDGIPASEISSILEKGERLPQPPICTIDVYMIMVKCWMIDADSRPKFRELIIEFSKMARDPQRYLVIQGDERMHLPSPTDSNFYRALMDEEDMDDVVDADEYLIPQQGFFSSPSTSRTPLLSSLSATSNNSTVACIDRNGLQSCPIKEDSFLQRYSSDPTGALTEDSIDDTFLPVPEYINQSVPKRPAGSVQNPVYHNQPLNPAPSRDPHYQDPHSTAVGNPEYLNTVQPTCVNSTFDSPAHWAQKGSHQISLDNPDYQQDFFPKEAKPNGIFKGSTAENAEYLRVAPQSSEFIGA
For the molecule `CN(CC(=O)O)N1=CC=C2N=CN=C(Nc3cccc(Br)c3)C2=C1`, the IC50 turned out to be 16 nM.

With `CN1CCN(CCCNN2=CC=C3N=CN=C(Nc4cccc(C)c4)C3=C2)CC1`, the IC50 amounted to 5.6 nM.

The molecule `COc1cc2c(Nc3cccc(Br)c3)ncnc2cn1` returned an IC50 of 2.6 nM.

As to `CN(C)CCCCNN1=CC=C2N=CN=C(Nc3cccc(Br)c3)C2=C1`, the IC50 worked out at 7.4 nM.

Turning to `CC(=O)Nc1ccc2c(Nc3cccc(Br)c3)ncnc2c1`, the IC50 amounted to 40 nM.

As to `Fc1cc2ncnc(Nc3cccc(Br)c3)c2cn1`, the IC50 amounted to 13 nM.

In the case of `Clc1cccc(Nc2ncnc3ccccc23)c1`, the half-maximal inhibitory concentration (IC50) came out at 23.4 nM.

Molecule `COc1ncc2ncnc(Nc3cccc(Br)c3)c2n1` showed an IC50 of 3.8 nM.

The molecule `Nc1cc2ncnc(Nc3cccc(Br)c3)c2cn1` showed an IC50 of 10 nM. Against the preceding molecule, the IC50 is about 2.6-fold higher.

Regarding `Cc1cccc(Nc2ncnc3cnc(Cl)nc23)c1`, the IC50 worked out at 380 nM.

For the molecule `Nc1cc2ncnc(Nc3cccc(F)c3)c2cn1`, the IC50 came to 850 nM.

`COc1cc2ncnc(Nc3cccc(Br)c3)c2cc1N` showed an IC50 of 3.8 nM.

Take `Cc1cccc(Nc2ncnc3cnc(N(C)C)nc23)c1`: the 50% inhibitory concentration (IC50) came out at 4 nM.

`OC(=O)CCCNN1=CC=C2N=CN=C(Nc3cccc(Br)c3)C2=C1` yielded an IC50 of 0.2 nM.

`O=[N+]([O-])c1ccc2ncnc(Nc3cccc(Br)c3)c2c1` had an IC50 of 912 nM.

Take `CN(C)CCCCNN1=CC=C2N=CN=C(Nc3cccc(C)c3)C2=C1`: the IC50 is 5.4 nM.

`CN(CC(O)CO)N1=CC=C2N=CN=C(Nc3cccc(Br)c3)C2=C1` gave an IC50 of 3.2 nM.

Molecule `CNc1ccc2ncnc(Nc3cccc(Br)c3)c2c1` registered a concentration for half-maximal inhibition (IC50) of 4 nM.

In turn, `NNN1=CC=C2N=CN=C(Nc3cccc(Br)c3)C2=C1` registered an IC50 of 7.2 nM. This IC50 lies about 1.8-fold higher than the previous one.

`CN(C)c1ccc(Nc2ncnc3cc(N)ncc23)cc1` displayed an IC50 of 4890 nM.

`Brc1cccc(NC2=NC=NC3=CC=N(NCCCCN4CCOCC4)C=C23)c1` yielded a half-inhibitory concentration (IC50) of 5.4 nM. Compared with the last molecule, the IC50 is about 910-fold lower.

For `COc1cc2ncnc(Nc3ccccc3)c2cc1OC`, the IC50 turned out to be 29 nM.

For `Ic1cccc(Nc2ncnc3ccccc23)c1`, the IC50 worked out at 81 nM.

For the molecule `CC(=O)Nc1cc2ncnc(Nc3cccc(Br)c3)c2cn1`, the IC50 was found to be 29 nM.

`Cc1cccc(Nc2ncnc3ccccc23)c1` came in with an IC50 of 912 nM.

The molecule `Brc1cccc(NC2=NC=NC3=CC=N(NCCCn4ccnc4)C=C23)c1` showed an IC50 of 0.5 nM.

Take `OCCN(CCO)N1=CC=C2N=CN=C(Nc3cccc(Br)c3)C2=C1`: the IC50 was determined as 12 nM.

In turn, `Fc1cc2c(Nc3cccc(Br)c3)ncnc2cn1` had an IC50 of 125 nM.

`OCCN(CCO)CCCNN1=CC=C2N=CN=C(Nc3cccc(Br)c3)C2=C1`: the IC50 was found to be 1.2 nM.

In turn, `Cc1cccc(Nc2ncnc3cnc(NCCN4CCOCC4)nc23)c1` gave an IC50 of 2.3 nM.

With `COc1ccc2c(Nc3cccc(Br)c3)ncnc2c1`, the IC50 is 10 nM.

The molecule `Brc1cccc(Nc2ncnc3ccccc23)c1` came in with an IC50 of 27.5 nM.

As for `Nc1cc2ncnc(Nc3ccc(C(F)(F)F)cc3)c2cn1`, the IC50 was 4780 nM.

On to `OC(=O)CCNN1=CC=C2N=CN=C(Nc3cccc(Br)c3)C2=C1`, for which the IC50 came to 0.6 nM.

Molecule `Cc1cccc(Nc2ncnc3cnc(NCCc4c[nH]cn4)nc23)c1` displayed an IC50 of 3 nM.

Molecule `COc1ccc2ncnc(Nc3cccc(Br)c3)c2c1` yielded a concentration for half-maximal inhibition (IC50) of 354 nM.

For `CN1CCN(CCCNN2=CC=C3N=CN=C(Nc4cccc(Br)c4)C3=C2)CC1`, the IC50 was determined as 5 nM.

On to `Nc1cc2ncnc(Nc3ccccc3Br)c2cn1`, for which the IC50 was found to be 245 nM.

As to `Nc1cc2c(Nc3cccc(Br)c3)ncnc2cc1Cl`, the IC50 worked out at 6.6 nM. This IC50 is about 37-fold lower than that of the molecule before.

For the molecule `O=[N+]([O-])c1ccc2c(Nc3cccc(I)c3)ncnc2c1`, the IC50 was 549 nM. This IC50 is about 83-fold higher than that of the molecule before.

As to `COc1cc2ncnc(Nc3ccc(Br)cc3)c2cc1OC`, the IC50 was 0.97 nM.

As for `Nc1ccc2c(Nc3ccccc3)ncnc2c1`, the IC50 was determined as 100 nM.

For `CN(C)c1cc2ncnc(Nc3cccc(Br)c3)c2cc1N`, the IC50 turned out to be 160 nM. This IC50 lies about 1.6-fold higher than the previous one.

Take `CNc1cc2ncnc(Nc3cccc(Br)c3)c2cc1[N+](=O)[O-]`: the IC50 was 69 nM.

Molecule `Clc1ncc2ncnc(Nc3cccc(Br)c3)c2n1` yielded a concentration for half-maximal inhibition (IC50) of 83 nM.

With `Cc1cccc(NC2=NC=NC3=CC=N(NCCCn4ccnc4)C=C23)c1`, the IC50 turned out to be 3.5 nM.

As for `OC(=O)CNN1=CC=C2N=CN=C(Nc3cccc(Br)c3)C2=C1`, the IC50 amounted to 1.5 nM. Against the preceding molecule, the IC50 is about 2.3-fold lower.

`FC(F)(F)c1cccc(Nc2ncnc3ccccc23)c1` had an IC50 of 588 nM.

The molecule `Nc1ccc2ncnc(Nc3cccc(Br)c3)c2n1` came in with an IC50 of 7.7 nM.

For the molecule `Clc1cc2c(Nc3cccc(Br)c3)ncnc2cn1`, the IC50 worked out at 40 nM.

The molecule `Fc1cccc(Nc2ncnc3ccccc23)c1` showed an IC50 of 56 nM.

`Brc1cccc(Nc2ncnc3cnc(NCCc4c[nH]cn4)nc23)c1` had a half-inhibitory concentration (IC50) of 0.2 nM. This IC50 is about 280-fold lower than that of the molecule before.

Molecule `CN(C)c1ccc2ncnc(Nc3cccc(Br)c3)c2n1` showed an IC50 of 9.7 nM. This IC50 lies about 48-fold higher than the previous one.

`OS(=O)(=O)CCNN1=CC=C2N=CN=C(Nc3cccc(Br)c3)C2=C1` yielded an IC50 of 1.4 nM. This IC50 is about 6.9-fold lower than that of the molecule before.

Molecule `Brc1cccc(NC2=NC=NC3=CC=N(NCCN4CCOCC4)C=C23)c1` gave an IC50 of 3.2 nM. Compared with the last molecule, the IC50 is about 2.3-fold higher.

The molecule `CCCOc1cc2ncnc(Nc3cccc(Br)c3)c2cc1OCCC` registered an IC50 of 0.17 nM.

On to `O=[N+]([O-])c1ccc2c(Nc3cccc(Br)c3)ncnc2c1`, for which the IC50 was 1000 nM.

In the case of `Cc1cccc(Nc2ncnc3cnc(N)nc23)c1`, the IC50 is 17 nM.

`O=[N+]([O-])c1cc2c(Nc3cccc(Br)c3)ncnc2cc1Cl` came in with an IC50 of 25 nM.

In turn, `CN(C)c1ccc2c(Nc3cccc(Br)c3)ncnc2n1` showed an IC50 of 330 nM. This IC50 is about 13-fold higher than that of the molecule before.

Consider `Nc1cc2ncnc(Nc3ccccc3)c2cn1`, for which the IC50 was determined as 251 nM.

The molecule `CN(CCO)N1=CC=C2N=CN=C(Nc3cccc(Br)c3)C2=C1` gave an IC50 of 2.6 nM.

For the molecule `Nc1ccc2ncnc(Nc3ccccc3)c2c1`, the IC50 came out at 776 nM.

Turning to `COc1ccc2c(Nc3cccc(Br)c3)ncnc2n1`, the IC50 was determined as 260 nM.

`Brc1cccc(Nc2ncnc3cnc(NCCn4ccnc4)nc23)c1` gave an IC50 of 2.3 nM.

Turning to `Oc1cc2ncnc(Nc3cccc(Br)c3)c2cc1O`, the half-maximal inhibitory concentration (IC50) was 0.17 nM.

With `CN(C)CCN(C)N1=CC=C2N=CN=C(Nc3cccc(Br)c3)C2=C1`, the IC50 turned out to be 40 nM.

In turn, `Brc1cccc(Nc2ncnc3cnc(NCCN4CCOCC4)nc23)c1` showed an IC50 of 0.8 nM. This IC50 is about 50-fold lower than that of the molecule before.

The molecule `CN(C)CCNN1=CC=C2N=CN=C(Nc3cccc(Br)c3)C2=C1` yielded an IC50 of 45 nM. This IC50 is about 56-fold higher than that of the molecule before.

Consider `Nc1cc2ncnc(Nc3cccc(O)c3)c2cn1`, for which the IC50 stood at 70 nM.

The molecule `OCCNN1=CC=C2N=CN=C(Nc3cccc(Br)c3)C2=C1` showed an IC50 of 0.2 nM.

With `CN(C)CCCCCNN1=CC=C2N=CN=C(Nc3cccc(Br)c3)C2=C1`, the IC50 was determined as 8.5 nM.

In turn, `CN(C)c1cccc(Nc2ncnc3cc(N)ncc23)c1` yielded an IC50 of 1810 nM. Compared with the last molecule, the IC50 is about 210-fold higher.

For the molecule `COc1ccc(Nc2ncnc3cc(N)ncc23)cc1`, the IC50 worked out at 670 nM.

The molecule `CN(C)CCCNN1=CC=C2N=CN=C(Nc3cccc(Br)c3)C2=C1` showed an IC50 of 8.9 nM.

Take `CNc1ncc2ncnc(Nc3ccccc3)c2n1`: the IC50 turned out to be 13 nM.

As to `Oc1ccc2c(Nc3cccc(Br)c3)ncnc2c1`, the IC50 was found to be 4.7 nM.

Molecule `COc1cc2ncnc(Nc3cccc(Br)c3)c2cc1[N+](=O)[O-]` gave an IC50 of 15 nM.

In the case of `COc1cc2ncnc(Nc3cccc(C(F)(F)F)c3)c2cc1OC`, the half-maximal inhibitory concentration (IC50) was 0.24 nM.

Turning to `OCN(CO)N1=CC=C2N=CN=C(Nc3cccc(Br)c3)C2=C1`, the IC50 was found to be 14 nM.

The molecule `Nc1ncc2ncnc(Nc3cccc(Br)c3)c2n1` returned an IC50 of 1.5 nM.

As for `CNc1cc2ncnc(Nc3cccc(Br)c3)c2cc1N`, the IC50 was found to be 0.69 nM.

`Brc1cccc(NC2=NC=NC3=CC=N(NCCCN4CCOCC4)C=C23)c1` had an IC50 of 1.9 nM.

Take `CCOc1cc2ncnc(Nc3cccc(Br)c3)c2cc1OCC`: the half-maximal inhibitory concentration (IC50) worked out at 0.006 nM.

In the case of `O=[N+]([O-])c1ccc2c(Nc3cccc(Cl)c3)ncnc2c1`, the IC50 was determined as 812 nM.

As to `COc1ccc2ncnc(Nc3ccccc3)c2c1`, the IC50 is 56 nM and 120 nM.

In turn, `CNc1ccc2ncnc(Nc3cccc(Br)c3)c2n1` registered a 50% inhibitory concentration (IC50) of 3.1 nM.

Take `COc1cc2ncnc(Nc3cccc(Br)c3)c2cn1`: the concentration for half-maximal inhibition (IC50) is 39 nM.

On to `OCC(O)CNN1=CC=C2N=CN=C(Nc3cccc(Br)c3)C2=C1`, for which the IC50 worked out at 0.9 nM.

`CN(C)c1ccc2c(Nc3cccc(Br)c3)ncnc2c1` displayed an IC50 of 11 nM.

With `COc1cc2ncnc(Nc3cccc(I)c3)c2cc1OC`, the IC50 is 0.89 nM. This IC50 lies about 12-fold lower than the previous one.

Turning to `Nc1ccc2ncnc(Nc3cccc(C(F)(F)F)c3)c2c1`, the IC50 stood at 575 nM.

As for `Nc1cc2ncnc(Nc3cccc(Br)c3)c2cc1N`, the IC50 came out at 0.12 nM. Against the preceding molecule, the IC50 is about 4800-fold lower.

On to `CNc1ncc2ncnc(Nc3cccc(Br)c3)c2n1`, for which the IC50 is 0.7 nM.

For `CN(C)c1ccc2ncnc(Nc3cccc(Br)c3)c2c1`, the half-inhibitory concentration (IC50) amounted to 85 nM.

`Brc1cccc(NC2=NC=NC3=CC=N(NCCc4c[nH]cn4)C=C23)c1` yielded an IC50 of 0.9 nM. Against the preceding molecule, the IC50 is about 94-fold lower.

`Nc1cc2ncnc(Nc3ccccc3N)c2cn1` had an IC50 of 5370 nM. This IC50 is about 6000-fold higher than that of the molecule before.

`COc1ccccc1Nc1ncnc2cc(N)ncc12`: the IC50 is 3710 nM. This IC50 and that of the molecule before are within 1.5-fold of each other.
